Data reported in patent publication US6596545B1, “Microdevices for screening biomolecules” (priority 1998, dated 2003).

Assays:
Type in all cases: biochemical
[1] = system: HIV variants (HIV protease variants, HIV-GST-K6); test: FRET protease activity assay in microchannels, immobilized HIV protease variants; conditions: all immobilized variants other than G48V or L90M; substrate Dns-SQNYPIVW 20 μM, pH 5.5
Protocol: HIV protease variants, in the form of HIV-GST-K6, and GST-K6 are immobilized to the aminoreactive monolayer surface of the microchannel device (see Example 4, above). HIV-GST-K6 and GST-K6 are diluted to concentrations of 1 μg/ml in 25 mM HEPES buffer (pH 7.5) containing 150 mM NaCl. First, 50 μl of protein-free buffer is transferred through the channels to hydrate the monolayer surface. After 5 min of incubation, 10 μl of the corresponding protein solutions are flushed through the channels to guarantee total replacement with protein-containing solution. Immobilization is finished after 30 min at room temperature. The channels are rinsed with 50 μl immobilization buffer and subjected to analysis. […]
HIV protease requires at least a heptapeptide substrate (Moore et al., Biochem. Biophys. Res. Commun., 1989, 159:420). To analyze the activity of the different HIV variants, a continuous assay based on intra-molecular fluorescence resonance energy transfer (FRET) is used. […] The modified heptapeptide; Dns-SQNYPIVW is prepared as described (Geoghegan et al.) and analyzed by amino acid analysis, nuclear magnetic resonance and mass spectrometry. […] Addition of the substrate to the immobilized proteins leads to time-dependent intensity changes in the fluorescence emission spectrum. […] To control for changes in background fluorescence, GST-K6 fusion protein is measured in parallel. […]

[2] = biological target: HIV protease V82F variant (Human immunodeficiency virus type 1 group M subtype B, UniProt P04585, V570F); conditions: substrate Dns-SQNYPIVW, pH 5.5
Protocol: (§1) HIV protease variants, in the form of HIV-GST-K6, and GST-K6 are immobilized to the aminoreactive monolayer surface of the microchannel device (see Example 4, above). HIV-GST-K6 and GST-K6 are diluted to concentrations of 1 μg/ml in 25 mM HEPES buffer (pH 7.5) containing 150 mM NaCl. First, 50 μl of protein-free buffer is transferred through the channels to hydrate the monolayer surface. After 5 min of incubation, 10 μl of the corresponding protein solutions are flushed through the channels to guarantee total replacement with protein-containing solution. Immobilization is finished after 30 min at room temperature. The channels are rinsed with 50 μl immobilization buffer and subjected to analysis. […] Ultrapure water with a resistance of 18 MΩcm is generally used for all aqueous buffers (purified by passage through a Barnstead Nanopure® system).
(§2) HIV protease requires at least a heptapeptide substrate (Moore et al., Biochem. Biophys. Res. Commun., 1989, 159:420). To analyze the activity of the different HIV variants, a continuous assay based on intra-molecular fluorescence resonance energy transfer (FRET) is used. […] Excitation of Trp is at […], and emission of Dns is at 575 nm. Cleavage of the peptide at the Tyr-Pro bond reduces the Dns emission and increases Trp emission at 360 nm. The modified heptapeptide; Dns-[…] is prepared as described (Geoghegan et al.) and analyzed by amino acid analysis, nuclear magnetic resonance and mass spectrometry. The purity is checked by HPLC analysis using a Vydac C-4 column and an acetonitrile gradient in 0.1% TFA. In order to test the activity of all the HIV variants described above, each microchannel with an immobilized HIV variant (see Example 6) is filled with 20 μM of Dns-[…] in 50 mM sodium acetate, pH 5.5, 13% glycerol, 10 mM DTT. Addition of the substrate to the immobilized proteins leads to time-dependent intensity changes in the fluorescence emission spectrum. […] To control for changes in background fluorescence, GST-K6 fusion protein is measured in parallel.
(§3) Competition assays can be carried out to test the specificity of the proteolysis by the HIV variants.

[3] = biological target: HIV protease L63P variant (Human immunodeficiency virus type 1 group M subtype B, UniProt P04585, L551P); conditions: substrate Dns-SQNYPIVW, pH 5.5
Protocol: as §1, §2, §3

[4] = biological target: HIV protease M461 variant (Human immunodeficiency virus type 1 group M subtype B, UniProt P04585, M534I); conditions: substrate Dns-SQNYPIVW, pH 5.5
Protocol: as §1, §2, §3

[5] = biological target: HIV protease 184V variant (Human immunodeficiency virus type 1 group M subtype B, UniProt P04585, I572V/P588I); conditions: substrate Dns-SQNYPIVW, pH 5.5
Protocol: as §1, §2, §3

[6] = biological target: HIV protease A71V variant (Human immunodeficiency virus type 1 group M subtype B, UniProt P04585, A559V/P588I); conditions: substrate Dns-SQNYPIVW, pH 5.5
Protocol: as §1, §2, §3

[7] = biological target: L10R HIV protease variant (Human immunodeficiency virus type 1 group M subtype B, UniProt P04585, L498R); conditions: substrate Dns-SQNYPIVW, pH 5.5
Protocol: as §1, §2, §3

| SMILES | inhibition of HIV variants [1] | block of protease activity [2] | block of protease activity [3] | block of protease activity [4] | block of protease activity [5] | block of protease activity [6] | decrease of protease activity [7] |
| --- | --- | --- | --- | --- | --- | --- | --- |
| CC(C)(C)NC(=O)[C@@H]1C[C@@H]2CCCC[C@@H]2CN1C[C@@H](O)[C@H](Cc1ccccc1)NC(=O)[C@H](CC(N)=O)NC(=O)c1ccc2ccccc2n1 [Sequinavir] | will inhibit all the HIV variants except those containing either the G48V or the L90M mutation | – | – | – | – | – | – |
| CC(C)c1nc(CN(C)C(=O)N[C@H](C(=O)N[C@@H](Cc2ccccc2)C[C@H](O)[C@H](Cc2ccccc2)NC(=O)OCc2cncs2)C(C)C)cs1 [Ritonavir] | – | unable to block the activity | unable to block the activity | unable to block the activity | unable to block the activity | unable to block the activity | – |
| CC(C)(C)NC(=O)[C@@H]1CN(Cc2cccnc2)CCN1C[C@@H](O)C[C@@H](Cc1ccccc1)C(=O)N[C@H]1c2ccccc2C[C@H]1O [Indinavir] | – | – | – | – | – | the A71V variant is not affected | not able to decrease the activity |
